Data as given in patent publication US6274715A, “Tricyclic erythromycin derivatives” (priority 1997, dated 2001).
≈ marks a conversion by molar mass, not a printed value.

Key:
Format in all cases: cell-based
CANDIDA ALBICANS CCH 442 = test: In vitro antibacterial activity, MIC, BHI agar dilution; details: C. albicans CCH 442, unit assumed
[1] = tested on: ENTEROBACTER AEROGENES ATCC 13048; test: as above; details: E. aerogenes ATCC 13048, unit assumed
[2] = tested on: PROVIDENCIA STUARTII CMX 640; details: P. stuartii CMX 640; BHI agar; unit assumed
PSEUDOMONAS CEPACIA 296I = test: In vitro antibacterial activity, MIC, BHI agar dilution; details: P. cepacia 296I, unit assumed
[3] = tested on: STAPHYLOCOCCUS AUREUS CMX 642A; test: as above; details: S. aureus CMX 642A, unit assumed
[4] = tested on: PSEUDOMONAS AERUGINOSA K799/WT; test: as above; details: P. aeruginosa K799/WT, unit assumed
[5] = tested on: PSEUDOMONAS AERUGINOSA K799/61; test: as above; details: P. aeruginosa K799/61, unit assumed
EN[…] ATCC 8043 = test: as above; details: E. faecium ATCC 8043, unit assumed
Method in brief: (§1)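 Agar dilution in BHI: plates inoculated with 1:100 dilutions of organisms (1:10 for Micrococcus and Streptococcus), incubated 20-24 h at 35-37° C, then inspected for the lowest inhibitory concentration against a drug-free growth control.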

STR[…] 508 = test: as above; details: S. agalactiae CMX 508, unit assumed
Method in brief: as §1

M[…] ATCC 4698 = test: as above; details: M. luteus ATCC 4698, unit assumed
Method in brief: as §1

M[…] ATCC 9341 = test: as above; details: M. luteus ATCC 9341, unit assumed
Method in brief: as §1

ESCHERICHIA COLI SS = test: as above; details: E. coli SS, unit assumed
[6] = tested on: STAPHYLOCOCCUS AUREUS 1775; test: as above; details: S. aureus 1775, unit assumed
ESCHERICHIA COLI DC-2 = test: as above; details: E. coli DC-2, unit assumed
[7] = tested on: STAPHYLOCOCCUS AUREUS A-5278; test: as above; details: S. aureus A-5278, unit assumed
[8] = tested on: STAPHYLOCOCCUS AUREUS ATCC 6538P; test: as above; details: S. aureus ATCC 6538P, 35-37° C., 20 to 24 hours, unit assumed
[9] = tested on: STAPHYLOCOCCUS AUREUS CMX 553; test: as above; details: S. aureus CMX 553, unit assumed
[10] = tested on: PSEUDOMONAS AERUGINOSA 5007; test: as above; details: P. aeruginosa 5007, unit assumed
[11] = tested on: STREPTOCOCCUS PYOGENES 930; test: as above; details: S. pyogenes 930, unit assumed
[12] = tested on: STAPHYLOCOCCUS EPIDERMIDIS 3519; details: S. epidermidis 3519; BHI agar; unit assumed
ESCHERICHIA COLI H560 = test: In vitro antibacterial activity, MIC, BHI agar dilution; details: E. coli H560, unit assumed
ESCHERICHIA COLI JUHL = details: E. coli JUHL; BHI agar; unit assumed
[13] = tested on: KLEBSIELLA PNEUMONIAE ATCC 8045; test: In vitro antibacterial activity, MIC, BHI agar dilution; details: K. pneumoniae ATCC 8045, unit assumed
[14] = tested on: STREPTOCOCCUS BOVIS A-5169; test: as above; details: S. bovis A-5169, unit assumed
[15] = tested on: PSEUDOMONAS AERUGINOSA DPHD-5263; test: as above; details: P. aeruginosa DPHD-5263, unit assumed
[16] = tested on: PSEUDOMONAS AERUGINOSA BMH10; test: as above; details: P. aeruginosa BMH10, unit assumed
[17] = tested on: STAPHYLOCOCCUS AUREUS A5177; test: as above; details: S. aureus A5177, unit assumed
[18] = tested on: MYCOBACTERIUM SMEGMATIS ATCC 114; test: as above; details: M. smegmatis ATCC 114, unit assumed
ESCHERICHIA COLI KNK 437 = details: E. coli KNK 437; BHI agar; unit assumed
[19] = tested on: PSEUDOMONAS AERUGINOSA DPHD-2862; test: In vitro antibacterial activity, MIC, BHI agar dilution; details: P. aeruginosa DPHD-2862, unit assumed
[20] = tested on: STREPTOCOCCUS PYOGENES PIU 2548; test: as above; details: S. pyogenes PIU 2548, unit assumed
[21] = tested on: STAPHYLOCOCCUS AUREUS NCTC10649M; test: as above; details: S. aureus NCTC10649M, unit assumed
[22] = tested on: STREPTOCOCCUS PYOGENES EES61; test: as above; details: S. pyogenes EES61, unit assumed

`CC[C@H]1OC(=O)[C@H](C)C(=O)[C@H](C)[C@@H](O[C@@H]2O[C@H](C)C[C@H](N(C)C)[C@H]2O)[C@](C)(OC)C[C@@H](C)C2=NC3CN(CCc4ccc(N)cc4)CC3N3C(=O)O[C@@]1(C)[C@H]3[C@H]2C` (stereo partly drawn) [Example 121] was tested, and the MIC (CANDIDA ALBICANS CCH 442) was over 100 µg/mL, the MIC [1] was 100 µg/mL (≈ 125 µM) and the MIC [2] was over 100 µg/mL. It also gave an MIC (PSEUDOMONAS CEPACIA 296I) of 100 µg/mL (≈ 125 µM), an MIC [3] of 0.78 µg/mL (≈ 0.977 µM) and an MIC [4] of over 100 µg/mL. It also gave an MIC [5] of 0.39 µg/mL (≈ 0.489 µM), an MIC (EN[…] ATCC 8043) of 0.05 µg/mL (≈ 0.0627 µM) and an MIC (STR[…] 508) of 0.02 µg/mL (≈ 0.0251 µM). It also gave an MIC (M[…] ATCC 4698) of 0.2 µg/mL (≈ 0.251 µM), an MIC (M[…] ATCC 9341) of 0.05 µg/mL (≈ 0.0627 µM) and an MIC (ESCHERICHIA COLI SS) of 0.2 µg/mL (≈ 0.251 µM). It also gave an MIC [6] of over 100 µg/mL, an MIC (ESCHERICHIA COLI DC-2) of 50 µg/mL (≈ 62.7 µM) and an MIC [7] of over 100 µg/mL. For the same compound, the MIC [8] was 0.78 µg/mL (≈ 0.977 µM), the MIC [9] was 0.78 µg/mL (≈ 0.977 µM) and the MIC [10] was over 100 µg/mL. The MIC [11] was over 100 µg/mL, the MIC [12] was 0.78 µg/mL (≈ 0.977 µM) and the MIC (ESCHERICHIA COLI H560) was 25 µg/mL (≈ 31.3 µM). It also gave an MIC (ESCHERICHIA COLI JUHL) of 50 µg/mL (≈ 62.7 µM), an MIC [13] of 100 µg/mL (≈ 125 µM) and an MIC [14] of 0.01 µg/mL (≈ 0.0125 µM). The MIC [15] was over 100 µg/mL, the MIC [16] was 100 µg/mL (≈ 125 µM) and the MIC [17] was 0.78 µg/mL (≈ 0.977 µM). It also gave an MIC [18] of 6.2 µg/mL (≈ 7.77 µM), an MIC (ESCHERICHIA COLI KNK 437) of 50 µg/mL (≈ 62.7 µM) and an MIC [19] of over 100 µg/mL. It also gave an MIC [20] of 0.78 µg/mL (≈ 0.977 µM), an MIC [21] of 0.78 µg/mL (≈ 0.977 µM) and an MIC [22] of 0.02 µg/mL (≈ 0.0251 µM).
`CC[C@H]1OC(=O)[C@H](C)C(=O)[C@H](C)[C@@H](O[C@@H]2O[C@H](C)C[C@H](N(C)C)[C@H]2O)[C@](C)(OC)C[C@@H](C)C2=NC3CN(CCc4ccc(NC(C)=O)cc4)CC3N3C(=O)O[C@@]1(C)[C@H]3[C@H]2C` (stereo partly drawn) [Example 122] was tested, and the MIC (CANDIDA ALBICANS CCH 442) was over 100 µg/mL, the MIC [1] was 100 µg/mL (≈ 119 µM) and the MIC [2] was over 100 µg/mL. For the same compound, the MIC (PSEUDOMONAS CEPACIA 296I) was over 100 µg/mL, the MIC [3] was 0.78 µg/mL (≈ 0.928 µM) and the MIC [4] was over 100 µg/mL. It also gave an MIC [5] of 0.78 µg/mL (≈ 0.928 µM), an MIC (EN[…] ATCC 8043) of 0.78 µg/mL (≈ 0.928 µM) and an MIC (STR[…] 508) of 0.1 µg/mL (≈ 0.119 µM). For the same compound, the MIC (M[…] ATCC 4698) was 1.56 µg/mL (≈ 1.86 µM), the MIC (M[…] ATCC 9341) was 0.05 µg/mL (≈ 0.0595 µM) and the MIC (ESCHERICHIA COLI SS) was 0.78 µg/mL (≈ 0.928 µM). The MIC [6] was over 100 µg/mL, the MIC (ESCHERICHIA COLI DC-2) was 100 µg/mL (≈ 119 µM) and the MIC [7] was over 100 µg/mL. For the same compound, the MIC [8] was 0.39 µg/mL (≈ 0.464 µM), the MIC [9] was 0.78 µg/mL (≈ 0.928 µM) and the MIC [10] was over 100 µg/mL. It also gave an MIC [11] of 100 µg/mL (≈ 119 µM), an MIC [12] of 0.78 µg/mL (≈ 0.928 µM) and an MIC (ESCHERICHIA COLI H560) of 50 µg/mL (≈ 59.5 µM). The MIC (ESCHERICHIA COLI JUHL) was 100 µg/mL (≈ 119 µM), the MIC [13] was over 100 µg/mL and the MIC [14] was 0.02 µg/mL (≈ 0.0238 µM). It also gave an MIC [15] of over 100 µg/mL, an MIC [16] of over 100 µg/mL and an MIC [17] of 0.39 µg/mL (≈ 0.464 µM). The MIC [18] was 25 µg/mL (≈ 29.8 µM), the MIC (ESCHERICHIA COLI KNK 437) was 50 µg/mL (≈ 59.5 µM) and the MIC [19] was over 100 µg/mL. For the same compound, the MIC [20] was 6.2 µg/mL (≈ 7.38 µM), the MIC [21] was 0.78 µg/mL (≈ 0.928 µM) and the MIC [22] was 0.02 µg/mL (≈ 0.0238 µM).
